Assay: Liver microsome metabolism stability, rat liver microsome
Format: in vitro ADME, SD rat
Conditions: 0.5 mg protein/mL, test sample 1 μM, β-NADPH
Method: Test samples: the homemade compounds 1, 2, 4 and 5 of the present invention (for their chemical names and preparation methods, see the preparation example for each compound).
a mixed liver microsomes of SD rat and human both purchased from XenoTech, with batch Nos.: 1410271 (SD rat) and 1410013 (human) respectively, wherein the microsomal protein concentrations both were 20 mg mL^−1;
experimental promoter β-NADPH purchased from Roche (batch No.: 524F0231); and a phosphate buffer solution (pH 7.4) made in the lab.
An appropriate amount of the test sample powder was weighed accurately, and dissolved in an appropriate amount of dimethyl sulfoxide (DMSO) to a concentration of 1 mM; and the solution was then diluted by 20 times with methanol to yield a 50 μM working solution.
(1) According to the proportions in table 3 “Composition of the incubation system for liver microsome metabolism stability experiment” above, for each compound, 6 mL of PBS (100 mM), 0.6 mL of MgCl2 solution (20 mM) and 3.66 mL of H2O were made into a mixed solution 1 for the incubation system (not containing the microsomes, the test sample and β-NADPH).
(2) Liver microsomes (20 mg protein/mL) were taken from a refrigerator (−80° C.), and were placed on a thermostatic water bath oscillator (37° C.) and pre-incubated for 3 mins.
(3) For each compound, 1.88 mL of the mixed solution 1 for the incubation system was added with 55 μL of microsomes to obtain a mixed solution 2 for the incubation system (not containing the test sample and β-NADPH).
(4) Sample group (containing the microsomes and D-NADPH): 616 μL of mixed solution 2 for the incubation system was added with 14 μL of the test sample working solution (with a concentration of 50 μM), and with 70 μL of R-NADPH working solution (10 mM). The resulted solution was well mixed, and the resulted solution was then duplicated. The time points of sampling were at 0 min, 5th min, 10th min, 20th min, 30th min and 60th min.
(5) Control group (containing the microsomes, and water instead of D-NADPH): 264 μL of mixed solution 2 for the incubation system was added with 6 μL of the test sample working solution (50 μM), and with 30 μL of water. The resulted solution was well mixed, and the resulted solution was then duplicated. The time points of sampling were at 0 min and 60th min.
(6) 50 μL of sample was taken from an incubating sample tube at each predetermined time point, added to a terminating sample tube (containing 300 μL of cold terminator), and vortexed; and the reaction was terminated.
(7) after 10 mins of vortexing, the solution was centrifuged for 5 mins (12,000 rpm).
(8) 100 μL of supernatant was taken and added with 100 μL of water, and the mixture solution was thoroughly vortexed; and the solution was then analyzed by LC-MS/MS.
Percentages of residual contents were calculated according to the following formula.

Residual content (%) after 60 minutes of incubation: 77%
SMILES: O=C(O)c1ccc2nc(N3C[C@@H]4C[C@H]3C[C@H]4OCc3c(-c4c(Cl)cccc4Cl)noc3C3CC3)sc2c1 [Compound 2-1, 2-((1S, 4S, 5R)-5-((5-cyclopropyl-3-(2,6-dichlorophenyl)isoxazol-4-yl)methoxy)-2-azabicyclo[2.2.1]heptan-2-yl)benzo[d]thiazole-6-carboxylic acid]

Source: US11352358B2, “FXR agonist” (XUANZHU BIOPHARMACEUTICAL CO., LTD., priority 2017, dated 2022)
